Experimental data taken from patent US5079260A, “Method for treating inflammation and compounds and compositions suitable for use therein” (Nova Pharmaceutical Corporation, priority 1990, dated 1992).

These compounds were tested on Ear Edema Caused by Xylene (assay: Inhibition of Ear Edema Caused by Xylene (II), Table 9). Conditions: i.p., 10 mg/kg; 2 h.
Format: in vivo, CF-1 mice
Procedure: Inhibition of Ear Edema Caused by Xylene (II)
CF-1 mice, 25-30 g body weight, six animals per group, were used. The requisite amount of the test compound was dissolved is dimethyl sulfoxide or 0.5% methylcellulose and 100 μL of the solution was injected intraperitoneally 30 minutes prior to the administration the irritant. The irritant xylene was applied to the surface of the ear, 20 μL to the upper surface and 20 μL to the lower surface, After two hours, the thickness of the ear was measured to 0.01 mm by a micrometer with the loose drag positioned at the lateral-most edge of the mid-point of the pinna. Data were calculated as the percent inhibition by the test compound of increased ear thickness compared to control animals receiving only the irritant.

Row | SMILES | % Inhibition
1 | Cc1cccc2c1-c1ccccc1C2CCC(=O)N[C@@H](CC(C)C)C(=O)O (stereo partly drawn) [NPC 15975, N-{9H-[3-(4-Methylfluoren-9-yl)propionyl]}-L-leucine quarter hydrate] | 51%
2 | CCOC(=O)[C@H](CC(C)C)NC(=O)OCC1c2ccccc2-c2ccccc21 [NPC 15327, N-[(9H-Fluoren-9-ylmethoxy)carbonyl]-L-leucine ethyl ester] | 18%
3 | Cc1cccc2c1C(CCC(=O)N[C@@H](CCc1ccccc1)C(=O)O)c1ccccc1-2 (stereo partly drawn) [NPC 15974, N-{9H-[3-(1-Methylfluoren-9-yl)propionyl]}-L-homophenylalanine] | 48%
4 | COc1ccc2c(c1)C(CCC(=O)N[C@@H](CC(C)C)C(=O)O)c1ccccc1-2 (stereo partly drawn) [NPC 15968, N-{9H-[3-(2-Methoxyfluoren-9-yl)propionyl]}-L-leucine] | 23%
5 | CCCC[C@H](NC(=O)CCC1c2ccccc2-c2cccc(C)c21)C(=O)O (stereo partly drawn) [NPC 15976, N-[9H-[3-(1-Methylfluoren-9-yl)propionyl]}-L-norleucine, quarter hydrate] | 59%
6 | CC(C)C[C@H](NC(=O)OCC1c2ccccc2-c2ccccc21)C(=O)OCc1ccccc1 [NPC 15328, N-[(9H-Fluoren-9-ylmethoxy)carbonyl]-L-leucine benzyl ester] | 19%

Same assay, conditions: i.p., 30 mg/kg; 2 h

Row | SMILES | % Inhibition
7 | Cc1cccc2c1-c1ccccc1C2CCC(=O)N[C@@H](CC(C)C)C(=O)O (stereo partly drawn) [NPC 15975, N-{9H-[3-(4-Methylfluoren-9-yl)propionyl]}-L-leucine quarter hydrate] | 22%
8 | CCOC(=O)[C@H](CC(C)C)NC(=O)OCC1c2ccccc2-c2ccccc21 [NPC 15327, N-[(9H-Fluoren-9-ylmethoxy)carbonyl]-L-leucine ethyl ester] | 8%
9 | Cc1cccc2c1C(CCC(=O)N[C@@H](CCc1ccccc1)C(=O)O)c1ccccc1-2 (stereo partly drawn) [NPC 15974, N-{9H-[3-(1-Methylfluoren-9-yl)propionyl]}-L-homophenylalanine] | 57%
10 | COc1ccc2c(c1)C(CCC(=O)N[C@@H](CC(C)C)C(=O)O)c1ccccc1-2 (stereo partly drawn) [NPC 15968, N-{9H-[3-(2-Methoxyfluoren-9-yl)propionyl]}-L-leucine] | 62%
11 | CCCC[C@H](NC(=O)CCC1c2ccccc2-c2cccc(C)c21)C(=O)O (stereo partly drawn) [NPC 15976, N-[9H-[3-(1-Methylfluoren-9-yl)propionyl]}-L-norleucine, quarter hydrate] | 33%
12 | CC(C)C[C@H](NC(=O)OCC1c2ccccc2-c2ccccc21)C(=O)OCc1ccccc1 [NPC 15328, N-[(9H-Fluoren-9-ylmethoxy)carbonyl]-L-leucine benzyl ester] | 29%

Same assay, conditions: i.p., 100 mg/kg; 2 h

Row | SMILES | % Inhibition
13 | Cc1cccc2c1-c1ccccc1C2CCC(=O)N[C@@H](CC(C)C)C(=O)O (stereo partly drawn) [NPC 15975, N-{9H-[3-(4-Methylfluoren-9-yl)propionyl]}-L-leucine quarter hydrate] | 49%
14 | CCOC(=O)[C@H](CC(C)C)NC(=O)OCC1c2ccccc2-c2ccccc21 [NPC 15327, N-[(9H-Fluoren-9-ylmethoxy)carbonyl]-L-leucine ethyl ester] | 19%
15 | Cc1cccc2c1C(CCC(=O)N[C@@H](CCc1ccccc1)C(=O)O)c1ccccc1-2 (stereo partly drawn) [NPC 15974, N-{9H-[3-(1-Methylfluoren-9-yl)propionyl]}-L-homophenylalanine] | 59%
16 | COc1ccc2c(c1)C(CCC(=O)N[C@@H](CC(C)C)C(=O)O)c1ccccc1-2 (stereo partly drawn) [NPC 15968, N-{9H-[3-(2-Methoxyfluoren-9-yl)propionyl]}-L-leucine] | 57%
17 | CCCC[C@H](NC(=O)CCC1c2ccccc2-c2cccc(C)c21)C(=O)O (stereo partly drawn) [NPC 15976, N-[9H-[3-(1-Methylfluoren-9-yl)propionyl]}-L-norleucine, quarter hydrate] | 62%
18 | CC(C)C[C@H](NC(=O)OCC1c2ccccc2-c2ccccc21)C(=O)OCc1ccccc1 [NPC 15328, N-[(9H-Fluoren-9-ylmethoxy)carbonyl]-L-leucine benzyl ester] | 13%

The compounds below were run on Ear Edema Caused by Oxazolone (assay: Inhibition of Ear Edema Caused by Oxazolone (II), Table 10). Conditions: i.p., 10 mg/kg; 24 h.
Format: in vivo, CF-1 mice
Procedure: Inhibition of Ear Edema Caused by Oxazolone (II)
CF-1 mice, 25-30 g body weight, five to six animals per group were used. The mice were sensitized to the irritant two weeks prior to the test by dribbling 100 μL of a 3% solution of oxazolone in acetone onto the abdominal skin of the animal. Test compounds were administered intraperitoneally as follows. […] The irritant, 3% oxazolone in acetone, was added to the surface of the ear, 5 μL added to the upper surface and 5 μL added to the lower surface. After twenty four hours, the thickness of the ear was measured to 0.01 mm by a micrometer with loose drag, positioned at the lateral-most edge of the mid-point of the pinna. Data were calculated as the inhibition of increased ear thickness compared to control animals' receiving only the irritant.

Row | SMILES | % Inhibition Intraperitoneal
19 | Cc1cccc2c1-c1ccccc1C2CCC(=O)N[C@@H](CC(C)C)C(=O)O (stereo partly drawn) [NPC 15975, N-{9H-[3-(4-Methylfluoren-9-yl)propionyl]}-L-leucine quarter hydrate] | 36%
20 | Cc1cccc2c1C(CCC(=O)N[C@@H](CCc1ccccc1)C(=O)O)c1ccccc1-2 (stereo partly drawn) [NPC 15974, N-{9H-[3-(1-Methylfluoren-9-yl)propionyl]}-L-homophenylalanine] | 0%
21 | COc1ccc2c(c1)C(CCC(=O)N[C@@H](CC(C)C)C(=O)O)c1ccccc1-2 (stereo partly drawn) [NPC 15968, N-{9H-[3-(2-Methoxyfluoren-9-yl)propionyl]}-L-leucine] | 24%
22 | CCCC[C@H](NC(=O)CCC1c2ccccc2-c2cccc(C)c21)C(=O)O (stereo partly drawn) [NPC 15976, N-[9H-[3-(1-Methylfluoren-9-yl)propionyl]}-L-norleucine, quarter hydrate] | 10%

Same assay, conditions: i.p., 30 mg/kg; 24 h

Row | SMILES | % Inhibition Intraperitoneal
23 | Cc1cccc2c1-c1ccccc1C2CCC(=O)N[C@@H](CC(C)C)C(=O)O (stereo partly drawn) [NPC 15975, N-{9H-[3-(4-Methylfluoren-9-yl)propionyl]}-L-leucine quarter hydrate] | 19%
24 | Cc1cccc2c1C(CCC(=O)N[C@@H](CCc1ccccc1)C(=O)O)c1ccccc1-2 (stereo partly drawn) [NPC 15974, N-{9H-[3-(1-Methylfluoren-9-yl)propionyl]}-L-homophenylalanine] | 23%
25 | COc1ccc2c(c1)C(CCC(=O)N[C@@H](CC(C)C)C(=O)O)c1ccccc1-2 (stereo partly drawn) [NPC 15968, N-{9H-[3-(2-Methoxyfluoren-9-yl)propionyl]}-L-leucine] | 24%
26 | CCCC[C@H](NC(=O)CCC1c2ccccc2-c2cccc(C)c21)C(=O)O (stereo partly drawn) [NPC 15976, N-[9H-[3-(1-Methylfluoren-9-yl)propionyl]}-L-norleucine, quarter hydrate] | 8%

Same assay, conditions: i.p., 100 mg/kg; 24 h

Row | SMILES | % Inhibition Intraperitoneal
27 | Cc1cccc2c1-c1ccccc1C2CCC(=O)N[C@@H](CC(C)C)C(=O)O (stereo partly drawn) [NPC 15975, N-{9H-[3-(4-Methylfluoren-9-yl)propionyl]}-L-leucine quarter hydrate] | 73%
28 | Cc1cccc2c1C(CCC(=O)N[C@@H](CCc1ccccc1)C(=O)O)c1ccccc1-2 (stereo partly drawn) [NPC 15974, N-{9H-[3-(1-Methylfluoren-9-yl)propionyl]}-L-homophenylalanine] | 48%
29 | COc1ccc2c(c1)C(CCC(=O)N[C@@H](CC(C)C)C(=O)O)c1ccccc1-2 (stereo partly drawn) [NPC 15968, N-{9H-[3-(2-Methoxyfluoren-9-yl)propionyl]}-L-leucine] | 66%
30 | CCCC[C@H](NC(=O)CCC1c2ccccc2-c2cccc(C)c21)C(=O)O (stereo partly drawn) [NPC 15976, N-[9H-[3-(1-Methylfluoren-9-yl)propionyl]}-L-norleucine, quarter hydrate] | 73%

Each compound was assayed on Ear Edema Caused By Tetradecanoylphorbol Acetate (assay: Inhibition of Ear Edema Caused by Tetradecanoylphorbol Acetate (II), Table 7). Conditions: i.p., 10 mg/kg; 3 h.
Format: in vivo, CF-1 Mice
Procedure: Inhibition of Ear Edema Caused by Tetradecanoylphorbol Acetate (II)
CF-1 Mice, 25-30 g body weight, six animals per group were used. Test compounds were administered intraperitoneally or topically as follows. For intraperitoneal administration, the test compound was dissolved in dimethyl sulfoxide or 0.5% methylcellulose and 100 microliters was injected 30 minutes prior to irritant (100 mg/kg, i.p.). […] A solution of the irritant, tetradecanoylphorbol acetate, 200 μg/mL, was added to the surface of the ear, 5 μL to the upper surface and 5 μL to the lower surface. After three hours, the thickness of the ear was measured to 0.01 mm by a micrometer with loose drag, positioned at the lateral-most edge of the mid-point of the pinna. Data were calculated as the inhibition of increased ear thickness compared to control animals receiving only the irritant.

Row | SMILES | % Inhibition Intraperitoneal
31 | CCOC(=O)[C@H](CC(C)C)NC(=O)OCC1c2ccccc2-c2ccccc21 [NPC 15327, N-[(9H-Fluoren-9-ylmethoxy)carbonyl]-L-leucine ethyl ester] | 37%
32 | CC(C)C[C@H](NC(=O)OCC1c2ccccc2-c2ccccc21)C(=O)OCc1ccccc1 [NPC 15328, N-[(9H-Fluoren-9-ylmethoxy)carbonyl]-L-leucine benzyl ester] | 49%

Same assay, conditions: i.p., 30 mg/kg; 3 h

Row | SMILES | % Inhibition Intraperitoneal
33 | CCOC(=O)[C@H](CC(C)C)NC(=O)OCC1c2ccccc2-c2ccccc21 [NPC 15327, N-[(9H-Fluoren-9-ylmethoxy)carbonyl]-L-leucine ethyl ester] | 64%
34 | CC(C)C[C@H](NC(=O)OCC1c2ccccc2-c2ccccc21)C(=O)OCc1ccccc1 [NPC 15328, N-[(9H-Fluoren-9-ylmethoxy)carbonyl]-L-leucine benzyl ester] | 47%

Same assay, conditions: i.p., 100 mg/kg; 3 h

Row | SMILES | % Inhibition Intraperitoneal
35 | CCOC(=O)[C@H](CC(C)C)NC(=O)OCC1c2ccccc2-c2ccccc21 [NPC 15327, N-[(9H-Fluoren-9-ylmethoxy)carbonyl]-L-leucine ethyl ester] | 77%
36 | CC(C)C[C@H](NC(=O)OCC1c2ccccc2-c2ccccc21)C(=O)OCc1ccccc1 [NPC 15328, N-[(9H-Fluoren-9-ylmethoxy)carbonyl]-L-leucine benzyl ester] | 62%
